Laboratory results from ChEMBL document CHEMBL1938245, “aza-Flavanones as potent cross-species microRNA inhibitors that arrest cell cycle” (Bioorg Med Chem Lett, 2012).
Active and inactive are the calls of the source. No cut-off for these calls is given here.

Tests used:
MCF7 [1] = test: Cell cycle arrest in human MCF7 cells assessed as accumulation at G0/G1 phase at 4 uM after 24 hrs using propidium iodide staining by flow cytometry (reference value: 79%); assay type: functional
MCF7 [2] = test: Cell cycle arrest in human MCF7 cells assessed as accumulation at S phase at 4 uM after 24 hrs using propidium iodide staining by flow cytometry (reference value: 9%); assay type: functional
MCF7 [3] = test: Cell cycle arrest in human MCF7 cells assessed as accumulation at G2/M phase at 4 uM after 24 hrs using propidium iodide staining by flow cytometry (reference value: 11%); assay type: functional
[4] = Cytotoxicity against HEK cells; assay type: cell-based; conditions: human, hek293
MCF-10A = test: Cytotoxicity against human MCF10A cells; assay type: cell-based
MCF7 [5] = test: Ratio of IC50 for HEK cells to IC50 for human MCF7 cells
MCF7 [6] = test: Ratio of IC50 for human MCF10A cells to IC50 for human MCF7 cells
Nucleic Acid [7] = test: Inhibition of miR14 in Drosophila melanogaster S2 cells at 4 uM after 24 hrs by luciferase reporter gene assay; assay type: cell-based
Nucleic Acid [8] = test: Inhibition of miR-4644 in human MCF7 cells assessed as increase in luminescence at 4 uM after 24 hrs by luciferase reporter gene assay relative to control; assay type: cell-based
Nucleic Acid [9] = test: Inhibition of miR-4644 in human HeLa cells assessed as increase in luminescence at 4 uM after 24 hrs by luciferase reporter gene assay relative to control; assay type: cell-based
Nucleic Acid [10] = test: Inhibition of Pri-miR-4644 expression in human HeLa cells at 4 uM after 10 mins by qRT-PCR analysis; assay type: cell-based
Nucleic Acid [11] = test: Inhibition of mature-miR-4644 expression in human HeLa cells at 4 uM after 10 mins by qRT-PCR analysis; assay type: cell-based
Nucleic Acid [12] = test: Inhibition of pri-miR-4644 expression in human MCF7 cells at 4 uM after 10 mins by qRT-PCR analysis; assay type: cell-based
Nucleic Acid [13] = test: Inhibition of mature-miR-4644 expression in human MCF7 cells at 4 uM after 10 mins by qRT-PCR analysis; assay type: cell-based
Nucleic Acid [14] = test: Inhibition of miR-30A in human HeLa cells assessed as increase in luminescence at 4 uM after 24 hrs by luciferase reporter gene assay relative to control; assay type: cell-based
Drosophila [15] = test: Inhibition of miR-14 in transgenic Drosophila larvae assessed as increase in fluorescence in wing disc at 50 uM, po by EGFP reporter gene assay using confocal microscopy relative to control; assay type: functional, organism-based
Drosophila [16] = test: Inhibition of miR-14 in transgenic Drosophila larvae expressing EGFP assessed as increase in EGFP protein expression in wing disc at 50 uM, po by Western blot analysis relative to control; assay type: functional, organism-based
Drosophila [17] = test: Down regulation of miR-14 in Drosophila larvae at 50 uM, po by qRT-PCR analysis relative to control; assay type: functional
Drosophila [18] = test: Down regulation of pri-miR-14 in Drosophila larvae at 50 uM, po by qRT-PCR analysis relative to control; assay type: functional, organism-based
Drosophila [19] = test: Down regulation of mature-miR-14 in Drosophila larvae at 50 uM, po by qRT-PCR analysis relative to control; assay type: functional, organism-based
Drosophila [20] = test: Down regulation of miR-3 in Drosophila larvae at 50 uM, po by qRT-PCR analysis relative to control; assay type: functional, organism-based
Nucleic Acid [21] = test: Inhibition of miR-4644 in human MCF7 cells assessed as reduction in luminescence at 4 uM after 24 hrs by luciferase reporter gene assay relative to control; assay type: cell-based
Nucleic Acid [22] = test: Inhibition of miR-4644 in human HeLa cells assessed as reduction in luminescence at 4 uM after 24 hrs by luciferase reporter gene assay relative to control; assay type: cell-based

## O=C1CC(c2ccc(Br)cc2)Nc2ccccc21 (stereo unspecified)
MCF7 [1]
  Activity: 83%
MCF7 [2]
  Activity: 9%
MCF7 [3]
  Activity: 7%
[4]
  Activity: Non-toxic
MCF-10A
  Activity: Non-toxic
MCF7 [5]
  Ratio IC50: 2
MCF7 [6]
  Ratio IC50: 3
Nucleic Acid [7]
  inhibition: Active
Nucleic Acid [8]
  fold change (FC): 3
Nucleic Acid [9]
  fold change (FC): 3
Nucleic Acid [10]
  inhibition: 20%
Nucleic Acid [11]
  inhibition: 20%
Nucleic Acid [12]
  inhibition: 20%
Nucleic Acid [13]
  inhibition: 20%
Nucleic Acid [14]
  inhibition: inactive
Drosophila [15]
  inhibition: Active
Drosophila [16]
  inhibition: Active
Drosophila [17]
  fold change (FC): 5
Drosophila [18]
  Activity: Active
Drosophila [19]
  Activity: Active
Drosophila [20]
  Activity: inactive

## CC(=O)Oc1ccc(C2CC(=O)c3ccccc3N2)c(OC(C)=O)c1 (stereo unspecified)
Nucleic Acid [21]
  inhibition: 21%
Nucleic Acid [22]
  inhibition: 56%

## O=C1CC(c2ccc(O)cc2O)Nc2ccccc21 (stereo unspecified)
MCF7 [1]
  Activity: 85%
MCF7 [2]
  Activity: 8%
MCF7 [3]
  Activity: 7%
[4]
  Activity: Non-toxic
MCF-10A
  Activity: Non-toxic
MCF7 [5]
  Ratio IC50: 2
MCF7 [6]
  Ratio IC50: 3
Nucleic Acid [7]
  inhibition: Active
Nucleic Acid [8]
  fold change (FC): 3
Nucleic Acid [9]
  fold change (FC): 3
Nucleic Acid [10]
  inhibition: 20%
Nucleic Acid [11]
  inhibition: 20%
Nucleic Acid [12]
  inhibition: 20%
Nucleic Acid [13]
  inhibition: 20%
Nucleic Acid [14]
  inhibition: inactive
Drosophila [15]
  inhibition: Active
Drosophila [16]
  inhibition: Active
Drosophila [17]
  fold change (FC): 5
Drosophila [18]
  Activity: Active
Drosophila [19]
  Activity: Active
Drosophila [20]
  Activity: inactive

## O=C1CC(c2ccccc2)Nc2ccccc21 (stereo unspecified)
Nucleic Acid [8]
  inhibition: inactive
Nucleic Acid [9]
  inhibition: inactive

## COc1ccc(C2CC(=O)c3ccccc3N2)cc1 (stereo unspecified)
Nucleic Acid [8]
  inhibition: inactive
Nucleic Acid [9]
  inhibition: inactive

## O=C1CC(c2ccc(-c3ccoc3)cc2)Nc2ccccc21 (stereo unspecified)
Nucleic Acid [21]
  inhibition: 21%
Nucleic Acid [22]
  inhibition: 56%

## O=C1CC(c2c[nH]c3ccccc23)Nc2ccccc21 (stereo unspecified)
Nucleic Acid [21]
  inhibition: 21%
Nucleic Acid [22]
  inhibition: 56%

## Cc1cc(C)c(C2CC(=O)c3ccccc3N2)c(C)c1 (stereo unspecified)
Nucleic Acid [21]
  inhibition: 21%
Nucleic Acid [22]
  inhibition: 56%

## Cc1ccc(S(=O)(=O)Oc2ccc(C3CC(=O)c4ccccc4N3)c(OS(=O)(=O)c3ccc(C)cc3)c2)cc1 (stereo unspecified)
Nucleic Acid [21]
  inhibition: 21%
Nucleic Acid [22]
  inhibition: 56%
